According to publication PMC5430874 (Scientific Reports, 2017):
Residue numbers refer to the chain shown, from its start. Like-named read-outs stand apart in the source and are kept apart here.

What was measured:
[1] = biological target: T1, GPR139 F109A^3×33 (Homo sapiens, UniProt Q6DWJ6, F109A); assay: Fluo-4 Ca2+-assay, GPR139 mutant F109A; format: cell-based; parameters: key to Emax ± SEM: NE: no effect (loss of activity); conditions: for EC50: F109A mutant; for Change of in vitro potency: F109A mutant versus WT, fold decreased
T1 construct: mGluR5 signal peptide (N); expressed in transfected cells; host or cells: HEK293
T1 sequence (Q6DWJ6 2-353 F109A limits assumed): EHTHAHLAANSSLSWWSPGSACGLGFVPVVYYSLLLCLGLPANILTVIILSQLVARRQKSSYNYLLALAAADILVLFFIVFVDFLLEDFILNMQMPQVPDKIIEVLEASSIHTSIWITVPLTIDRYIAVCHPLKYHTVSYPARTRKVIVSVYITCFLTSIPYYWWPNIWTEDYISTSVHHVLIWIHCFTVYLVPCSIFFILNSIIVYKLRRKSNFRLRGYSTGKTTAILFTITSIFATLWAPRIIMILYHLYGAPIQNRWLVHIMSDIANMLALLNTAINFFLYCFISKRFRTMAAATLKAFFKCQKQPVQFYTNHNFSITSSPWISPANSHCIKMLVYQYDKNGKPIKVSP
Text: (§1) To study the influence of specific amino acids in the predicted binding pocket on receptor function, the desired mutations were introduced into an N-terminally c-myc-tagged wild type human GPR139 (NM_001002911.3) in the pEGFP-N1 vector (BD Biosciences)[32], [33]. As previously described, these plasmids carry the signal peptide of mGluR5 to promote cell surface expression followed by a c-myc epitope to enable detection of total and surface expression by ELISA, followed by an engineered MluI and NotI site for easy insertion of the receptor of interest. Furthermore, the start-codon in the GPR139 sequence was deleted to ensure c-myc-tagging. Mutagenesis was designed in Serial Cloner 2.6 (© Franck Perez [SerialBasics]) and carried out by GenScript (USA). All mutated residues are illustrated in Supplementary Fig. 1b. An untagged GPR139(WT) in pEGFP-N1 was also generated to ensure that the c-myc-tag had no influence on GPR139(WT) function.
(§2) All GPR139 mutants were transfected into HEK293 cells. The HEK293 cells were grown in Dulbecco’s modified Eagle’s medium (DMEM) (Gibco, 41965) supplemented with 10% dialyzed fetal bovine serum (Gibco, 26400, United States origin), 100 units/mL penicillin and 100 μg/mL streptomycin (Gibco, 15140). HEK293 cells were reverse transfected using Lipofectamine2000 (Invitrogen). More specifically two mixtures were made: 1) 10 ng DNA/well + 25 μL Opti-MEM/well and 2) […] Lipofectamine2000/well + 25 μL Opti-MEM/well. The two mixtures were mixed and 50 μL/well was added directly in black 96-well plates with flat clear bottoms for the Fluo-4 Ca^2+-assay (Corning, Falcon, 353219) or in white Opaque 96-well Microplate (PerkinElmer Life, 6005680) for ELISA. 100 μL containing 20,000 cells were added to each well and incubated 48 hours before assays. All plates were coated with poly-D-lysine.
(§3) Compound 1a (1a) was kindly provided by H. Lundbeck A/S, Denmark. […] Both compounds were dissolved to 20 mM in DMSO (Sigma, D2650) and subsequently diluted in a HEPES buffer (HBSS (Gibco, 14025) supplemented with 20 mM HEPES + 1 mM MgCl2 + 1 mM CaCl2, pH = 7.4) to a final concentration of 0.5% DMSO in the Fluo-4 Ca^2+-assay. The DMSO level was kept constant for all concentrations of both compounds. DMSO was confirmed not to have any activity by itself at this concentration. L-Trp (T0254) and L -Phe (P2126) were obtained from Sigma-Aldrich and dissolved in buffer.
(§4) The Ca^2+ measurements were preformed using the Fluo-4 NW Calcium Assay Kit (Invitrogen, Molecular Probes, F36206) as previously described. Briefly, the Fluo-4 dye loading solution was prepared according to the manufacturer’s instructions by dissolving it in HEPES-buffer supplemented with 2.5 mM probenecid. 50 μL dye loading solution was added to each well. Cells were incubated with the Fluo-4 dye for 60 min at 37 °C, then washed with 100 μL HEPES-buffer. 100 μL HEPES-buffer supplemented with 2.5 mM probenecid was then added to each well and incubated in 10 minutes at 37 °C before measurement. […] Intracellular calcium changes were recorded as indicated on either a NOVOstar (BMG Labtech) at 37 °C with an excitation filter of 485 nm and an emission filters 520 nm or a FlexStation 3 Benchtop Multi-Mode Microplate Reader (Molecular Devices) at 37 °C with an excitation wavelength of 485 nm and emission of 525 nm.
(§5) All pharmacological data have been analyzed by using Prism 6.0 (GraphPad Software Inc., San Diego). Fitting of concentration response curves was performed by non-linear regression log(agonist) vs. response (four parameters). Pooled data are shown with standard error of the mean (S.E.M.) and data showing one representative are shown with standard deviation (S.D.). Changes in potency (pEC50) and span of myc-GPR139(WT) in comparison to untagged GPR139(WT) was statistically analyzed with a paired t-test and significance was accepted at p < 0.05. The ELISA data were normalized to surface expression of myc-GPR139(WT) (100%). […]

[2] = biological target: T2, GPR139 F109L^3×33 (Homo sapiens, UniProt Q6DWJ6, F109L); assay: Fluo-4 Ca2+-assay, GPR139 mutant F109L; format: cell-based; conditions: for EC50: F109L mutant
T2 construct: mGluR5 signal peptide (N); expressed in transfected cells; host or cells: HEK293
T2 sequence (Q6DWJ6 2-353 F109L limits assumed): T1 sequence (Q6DWJ6 2-353 F109A limits assumed) with A108L
Text: as §1, §2, §3, §4, §5

[3] = test system: GPR139; conditions: cited from earlier work; for activation of GPR139, concentration range: ref Isberg et al. and Liu et al.

Emax at 100 µM [1] [%] | EC50 [1] [µM] | Change of in vitro potency [1] | Emax [2] [%] | EC50 [2] [µM] | change of potency ([2]; F109L mutant versus WT) | Emax ± SEM ([1]; F109A, at 8 μM, normalized to buffer (0%) and 8 μM 1a (100%) on WT) | Emax at 8 µM ([2]; F109L, at 8 μM, normalized to buffer (0%) and 8 μM 1a (100%) on WT) [%] | Emax at 30000 µM ([1]; F109A, at 30 mM, normalized to buffer (0%) and 30 mM Phe (100%) on WT) [%] | Emax at 30000 µM ([2]; F109L, at 30 mM, normalized to buffer (0%) and 30 mM Phe (100%) on WT) [%] | Structure (SMILES) | agonist potency ([3]; ref Dvorak et al.) | agonist potency ([3]; ref Shi et al.) | activation of GPR139, concentration range [3] | Emax at 10000 µM ([1]; F109A, at 10 mM, normalized to buffer (0%) and 10 mM Trp (100%) on WT) [%] | Emax at 10000 µM ([2]; F109L, at 10 mM, normalized to buffer (0%) and 10 mM Trp (100%) on WT) [%]
60 ± 3 | > 100 | >2000 fold decreased | 102 ± 3 | 3.98 | ~ 100 fold |  |  |  |  | C[C@@H](NC(=O)CNC(=O)c1cccc(Cl)c1)c1ccccc1 (racemic) [Compound 7c] | ten-nanomolar range |  |  |  | 
 | > 7.94 | Loss of function |  | > 7.94 |  | NE* | 42 ± 16 |  |  | COc1cc(OC)cc(C(=O)NNC(=O)Nc2cccc3ccccc23)c1 [Compound 1a] |  | ten-nanomolar range |  |  | 
 | > 31600 |  |  | > 31600 |  |  |  | 60 ± 6 | 72 ± 9 | N[C@@H](Cc1ccccc1)C(=O)O [L-Phe, phenylalanine] |  |  | hundred-micromolar range |  | 

Structure (SMILES) | Emax at 100 µM [1] [%] | EC50 [1] [µM] | Change of in vitro potency [1] | Emax [2] [%] | EC50 [2] [µM] | change of potency ([2]; F109L mutant versus WT) | Emax ± SEM ([1]; F109A, at 8 μM, normalized to buffer (0%) and 8 μM 1a (100%) on WT) | Emax at 8 µM ([2]; F109L, at 8 μM, normalized to buffer (0%) and 8 μM 1a (100%) on WT) [%] | Emax at 30000 µM ([1]; F109A, at 30 mM, normalized to buffer (0%) and 30 mM Phe (100%) on WT) [%] | Emax at 30000 µM ([2]; F109L, at 30 mM, normalized to buffer (0%) and 30 mM Phe (100%) on WT) [%] | agonist potency ([3]; ref Dvorak et al.) | agonist potency ([3]; ref Shi et al.) | activation of GPR139, concentration range [3] | Emax at 10000 µM ([1]; F109A, at 10 mM, normalized to buffer (0%) and 10 mM Trp (100%) on WT) [%] | Emax at 10000 µM ([2]; F109L, at 10 mM, normalized to buffer (0%) and 10 mM Trp (100%) on WT) [%]
N[C@@H](Cc1c[nH]c2ccccc12)C(=O)O [L-Trp, tryptophan] |  | > 10000 |  |  | > 10000 |  |  |  |  |  |  |  | hundred-micromolar range | 60 ± 10 | 60 ± 5
